This is an account of results in patent publication US20250276078A1, “Camptothecin Derivative And Ligand-drug Conjugate Thereof” (Baili-Bio (Chengdu) Pharmaceutical Co., Ltd., priority 2020, published 2025).

The nature of data set [1]: Log P value test (partition coefficient in n-octane (oil) and water). In kind it is physicochemical. An excerpt:
The log P values are closely related to water solubility, membrane permeability, in vivo ADME process and affinity between the compound and the receptor, which play a key role in the process of the compound's penetration through the biofilm. The log P value was obtained by testing the partition coefficient of camptothecin drug in n-octane (oil) and water, the results are shown as follows: […]

Data set [2] relates to MDA-MB-468. Put plainly: Cell activity test of camptothecin chiral derivatives (MTS). The format is cell-based. As to the method: (§1) Cell-based in vitro experiments are used to determine cell survival, cytotoxicity and programmed cell death induced by camptothecin drugs disclosed in the present invention.
The in vitro efficacy of camptothecin was determined by cell proliferation test. CellTiter 96® Aqueous One Solution Cell Proliferation Assay is commercially available (Promega Corp., Madison, WI). CellTiter96® Aqueous One Solution Cell Proliferation Assay (a) is a test reagent that can be used to measure the number of viable cells from cell proliferation and cytotoxicity tests by colorimetric assay. […] PES has enhanced chemical stability, which allows it to be mixed with MTS to form stable solutions. MTS (Owen's reagent) is reduced by cellular organisms into a variety of colored methylate products, which can be dissolved directly in the medium. This transformation is most likely accomplished with the help of NADPH or NADH produced by dehydrogenase in metabolically active cells. For detection, appropriate amount of CellTiter96® Aqueous One Solution Reagent is added directly into the medium of culture plate hole, incubated for 1-4 hours, and the absorbance value of 490 nm is read with enzyme label instrument.
(§2) The amount of methylate detected at 490 nm is proportional to the number of live cells in the culture. Due to the dissolubility of the methyls of MTS in tissue medium, CellTiter 96® Aqueous One Solution is performed with fewer steps than the MTT or INT methods.
The 96-well plates were uniformly inoculated with appropriate cell density and incubated at 37° C. in carbon dioxide incubator. […] Camptothecin drug was diluted in the medium (initial concentration was 1 uM, 7 times diluted, with 8 concentration points. The last two columns were control group (i.e., cell+medium, no drug treatment) and blank group (i.e., cell-free, only containing medium, for background subtraction). After fully mixing the drug, the drug was added into the corresponding cell hole and incubated at 37° C. in a carbon dioxide incubator for 3 days. After 3 days, 20 ul MTS (Promegm, G3581) were added to each well for 2 h, and a machine reader (from Molecular Device, model: SpectraMAX190) took readings at 490 nM. By detecting the activity of dehydrogenase in mitochondria, IC50 was calculated to evaluate the inhibitory effect of camptothecin on cell proliferation.

In data set [3] the test system is SW620. The description is as above. The format is cell-based. As for the experimental part:
as §1
(§3) The in vitro efficacy of camptothecin was determined by cell proliferation test. CellTiter 96® Aqueous One Solution Cell Proliferation Assay is commercially available (Promega Corp., Madison, WI). CellTiter96® Aqueous One Solution Cell Proliferation Assay (a) is a test reagent that can be used to measure the number of viable cells from cell proliferation and cytotoxicity tests by colorimetric assay. The reagent contains a new tetrazolium compound [3-(4, 5-dimethylthiazol-2-yl)-5-(3-carboxymethoxyphenyl)-2-(4-sulfophenyl)-2h-Tetrazolium, inner salt; MTS] and an electron coupling agent (phenazine ethosulfate; PES). PES has enhanced chemical stability, which allows it to be mixed with MTS to form stable solutions. MTS (Owen's reagent) is reduced by cellular organisms into a variety of colored methylate products, which can be dissolved directly in the medium. This transformation is most likely accomplished with the help of NADPH or NADH produced by dehydrogenase in metabolically active cells. For detection, appropriate amount of CellTiter96® Aqueous One Solution Reagent is added directly into the medium of culture plate hole, incubated for 1-4 hours, and the absorbance value of 490 nm is read with enzyme label instrument.
as §2
(§4) The 96-well plates were uniformly inoculated with appropriate cell density and incubated at 37° C. in carbon dioxide incubator. 24 hours later, the cells were confirmed to be normal under the microscope, and camptothecin drugs were administered. Camptothecin drug was diluted in the medium (initial concentration was 1 uM, 7 times diluted, with 8 concentration points. The last two columns were control group (i.e., cell+medium, no drug treatment) and blank group (i.e., cell-free, only containing medium, for background subtraction). After fully mixing the drug, the drug was added into the corresponding cell hole and incubated at 37° C. in a carbon dioxide incubator for 3 days. After 3 days, 20 ul MTS (Promegm, G3581) were added to each well for 2 h, and a machine reader (from Molecular Device, model: SpectraMAX190) took readings at 490 nM. By detecting the activity of dehydrogenase in mitochondria, IC50 was calculated to evaluate the inhibitory effect of camptothecin on cell proliferation. The corresponding test results of camptothecin chiral derivative IC50 (nM) were as follows: PGP-99 T2

The subject of data set [4] is SK-BR-3. The data set is described as above. In kind it is cell-based. As for the experimental part:
as §1, §3, §2, §4

For data set [5], the system named is A431. The description is as above. In kind it is cell-based. As to the method:
as §1, §3, §2, §4

Data set [6] has as its system BxPc-3. The description is as above. The format is cell-based. As for the experimental part:
as §1, §3, §2, §4

The mark [7] stands for this setting: Homo sapiens, MDA-MB-468, 72 h, read-out: IC50.
[8] abbreviates: Homo sapiens, SW-620, 72 h, SW620, 3 days, read-out: IC50.
Where [9] appears, read: Homo sapiens, 72 h, SK-BR-3, 3 days, read-out: IC50.
[10] abbreviates: Homo sapiens, A-431, 72 h, A431, 3 days, read-out: IC50.
[11] abbreviates: Homo sapiens, 72 h, BxPc-3, 3 days, read-out: IC50.

The structures appear in SMILES notation. Like-named read-outs stand apart in the source and are kept apart here.

Molecule `CC[C@@]1(O)C(=O)OCc2c1cc1n(c2=O)Cc2c-1nc1cc(F)c(C)c3c1c2[C@@H](NC(=O)[C@H](C)O)CC3` [Compound 11, reference compound] registered a logD hydrocarbon water in data set [1] (LogP) of 2.5.
Still for that read-out and setting: the figure for `CC[C@@]1(O)C(=O)OCc2c1cc1n(c2=O)Cc2c-1nc1cc(F)c(C)c3c1c2[C@@H](NC(=O)[C@H](O)C1CC1)CC3` [Compound 16, reference compound] is 2.6.
The term IC50 denotes the concentration at which inhibition is half-maximal. In the case of `CC[C@@]1(O)C(=O)OCc2c1cc1n(c2=O)Cc2c-1nc1cc(F)c(C)c3c1c2[C@@H](NC(=O)[C@H](O)C(F)(F)F)CC3` [Compound 5], the concentration for half-maximal inhibition (IC50) is 8.91 nM in data set [2] (setting [7]); 0.866 nM in data set [3] (setting [8]); 8.49 nM in data set [4] (setting [9]); 2.83 nM in data set [5] (setting [10]); 1.73 nM in data set [6] (setting [11]). Further, in data set [1] (LogP), the logD hydrocarbon water is 1.9.
Regarding `CC[C@@]1(O)C(=O)OCc2c1cc1n(c2=O)Cc2c-1nc1cc(F)c(C)c3c1c2[C@H](NC(=O)C1(CO)CCC1)CC3` [Compound 9], the IC50 came to 0.525 nM in data set [2] (setting [7]); 1.11 nM in data set [3] (setting [8]); 7.32 nM in data set [4] (setting [9]); 1.52 nM in data set [5] (setting [10]); 1.07 nM in data set [6] (setting [11]). In data set [1] (LogP), this molecule had a logD hydrocarbon water of 1.6.
On to `CC[C@@]1(O)C(=O)OCc2c1cc1n(c2=O)Cc2c-1nc1cc(F)c(C)c3c1c2[C@H](NC(=O)[C@H](C)O)CC3` [Compound 3], for which the IC50 turned out to be 0.22 nM in data set [2] (setting [7]); 1.29 nM in data set [3] (setting [8]); 15 nM in data set [4] (setting [9]); 4.19 nM in data set [5] (setting [10]); 3.66 nM in data set [6] (setting [11]). The molecule also had a logD hydrocarbon water in data set [1] (LogP) of 1.6.
In the case of `CC[C@@]1(O)C(=O)OCc2c1cc1n(c2=O)Cc2c-1nc1cc(F)c(C)c3c1c2[C@@H](NC(=O)CO)CC3` [Dxd, reference compound], the IC50 in data set [2] (MDA-MB-468, 3 days, read-out: IC50) worked out at 10.7 nM; in data set [3] (SW620, 3 days, read-out: IC50), 1.95 nM; in data set [4] (SK-BR-3, 3 days, read-out: IC50), 19.7 nM; in data set [5] (A431, 3 days, read-out: IC50) it was 4.99 nM; in data set [6] (BxPc-3, 3 days, read-out: IC50) it was 3.97 nM.
In turn, `CC[C@@]1(O)C(=O)OCc2c1cc1n(c2=O)Cc2c-1nc1cc(F)c(C)c3c1c2[C@H](NC(=O)[C@@H](O)C(F)(F)F)CC3` [Compound 6] came in with a logD hydrocarbon water in data set [1] (LogP) of 1.9. In addition, the IC50 came out at 0.093 nM in data set [3] (setting [8]), 9.1 nM in data set [4] (setting [9]), 0.689 nM in data set [5] (setting [10]) and 0.416 nM in data set [6] (setting [11]).
With `CC[C@@]1(O)C(=O)OCc2c1cc1n(c2=O)Cc2c-1nc1cc(F)c(C)c3c1c2[C@H](NC(=O)[C@@H](O)C1CC1)CC3` [Compound 7], the IC50 in data set [2] (setting [7]) is under 0.001 nM; in data set [3] (setting [8]) it was 0.894 nM; in data set [4] (setting [9]), under 0.01 nM; in data set [5] (setting [10]) it was 0.961 nM; in data set [6] (setting [11]) it was 0.801 nM. The logD hydrocarbon water in data set [1] (LogP) is 1.7.
In data set [1] (LogP), `CC[C@@]1(O)C(=O)OCc2c1cc1n(c2=O)Cc2c-1nc1cc(F)c(C)c3c1c2[C@@H](NC(=O)[C@@H](O)C1CC1)CC3` [Compound 15, reference compound] registered a logD hydrocarbon water of 2.7.
For the molecule `CC[C@@]1(O)C(=O)OCc2c1cc1n(c2=O)Cc2c-1nc1cc(F)c(C)c3c1c2[C@H](NC(=O)[C@H](O)C1CC1)CC3` [Compound 8], the IC50 was under 0.001 nM in data set [2] (setting [7]); 1.18 nM in data set [3] (setting [8]); under 0.01 nM in data set [4] (setting [9]); 1.84 nM in data set [5] (setting [10]); 1.1 nM in data set [6] (setting [11]). This molecule came in with a logD hydrocarbon water in data set [1] (LogP) of 1.8.
As to `CC[C@@]1(O)C(=O)OCc2c1cc1n(c2=O)Cc2c-1nc1cc(F)c(C)c3c1c2[C@@H](NC(=O)[C@@H](C)O)CC3` [Compound 12, reference compound], the logD hydrocarbon water in data set [1] (LogP) stood at 2.5.
On the same count and under the same terms, for `CC[C@@]1(O)C(=O)OCc2c1cc1n(c2=O)Cc2c-1nc1cc(F)c(C)c3c1c2[C@@H](NC(=O)[C@@H](O)C(F)(F)F)CC3` [Compound 14, reference compound] the value was 2.6.
As to `CC[C@@]1(O)C(=O)OCc2c1cc1n(c2=O)Cc2c-1nc1cc(F)c(C)c3c1c2[C@H](NC(=O)[C@@H](C)O)CC3` [Compound 4], the logD hydrocarbon water in data set [1] (LogP) was found to be 1.9. Moreover, the IC50 in data set [3] (setting [8]) is 0.92 nM; in data set [5] (setting [10]), 3.1 nM; in data set [6] (setting [11]) it was 2.85 nM.
`CC[C@@]1(O)C(=O)OCc2c1cc1n(c2=O)Cc2c-1nc1cc(F)c(C)c3c1c2[C@H](NC(=O)CO)CC3` [Compound 2]: the IC50 was found to be 0.002 nM in data set [2] (Homo sapiens, MDA-MB-468, 72 h); 2.89 nM in data set [3] (Homo sapiens, SW-620, 72 h); 1.78 nM in data set [4] (Homo sapiens, SK-BR-3, 72 h); 4.5 nM in data set [5] (Homo sapiens, A-431, 72 h); 4 nM in data set [6] (Homo sapiens, BXPC-3, 72 h). Also, in data set [1] (n-octane (oil) / water, read-out: LogP), the logD hydrocarbon water is 1.8.
What is called LogP is a log measure of how a compound divides between an organic and an aqueous phase. Take `CC[C@@]1(O)C(=O)OCc2c1cc1n(c2=O)Cc2c-1nc1cc(F)c(C)c3c1c2[C@@H](NC(=O)[C@H](O)C(F)(F)F)CC3` [Compound 13, reference compound]: in data set [1], the LogP is 2.6.
